Test results from patent publication US20020082254A1, “Compounds for treating disorders where a decreased level of plasma FFA is desired” (priority 2000, published 2002).

Experiments:
Hepatic lipase (HL) = target: T1, Hepatic lipase (HL) (Homo sapiens, UniProt P11150); assay: Hepatic lipase (HL) inhibition assay, 3H-triolein substrate; type: biochemical; conditions: read-out: HL inhibition (% inh. at 50 μM)
T1 sequence (P11150 23-499): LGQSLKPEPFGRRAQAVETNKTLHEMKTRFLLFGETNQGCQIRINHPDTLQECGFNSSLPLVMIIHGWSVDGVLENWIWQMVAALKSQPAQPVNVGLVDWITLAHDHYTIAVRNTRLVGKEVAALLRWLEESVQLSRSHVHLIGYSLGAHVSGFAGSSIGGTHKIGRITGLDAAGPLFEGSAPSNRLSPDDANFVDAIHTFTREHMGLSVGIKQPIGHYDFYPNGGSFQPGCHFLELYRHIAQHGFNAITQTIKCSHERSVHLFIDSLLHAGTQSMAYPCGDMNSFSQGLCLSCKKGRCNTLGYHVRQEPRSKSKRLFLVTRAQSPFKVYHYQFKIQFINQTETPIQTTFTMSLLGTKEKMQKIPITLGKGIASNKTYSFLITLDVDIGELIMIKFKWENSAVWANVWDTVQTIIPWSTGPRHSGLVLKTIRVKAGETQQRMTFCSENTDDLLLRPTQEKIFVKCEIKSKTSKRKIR
From the text: Hepatic Lipase (HL) [classified as a triacylglycerol lipase, EC 3.1.1.3, in accordance with the Recommendations of the Nomenclature Committee of the International Union of Biochemistry and Molecular Biology (available on the World Wide Web at the following address: http://www.chem.qmw.ac.uk/iubmb/enzyme/)]
Materials. The hepatic lipase employed was obtained from Dr. Howard Wong of the University of California at Los Angeles (UCLA), USA, or produced and purified using the methods and a cell line provided by Dr. Wong's laboratory. ^3H-triolein (TO) from Amersham, Buckinghamshire, U.K., cat No. TRA191; 5-20 Ci/mmol dissolved in toluene and triolein (Sigma, Cat. No. T-1740). All other reagents are of commercial grade and obtained from various commercial sources.
50 μl TO in a 20 ml scintillation vial and evaporate with N2 for 5 minutes.
Add 1 ml 10% gum arabic and 1.25 ml Tris-Cl pH 8.5 and 2 ml MilliQ water.
Sonicate, on ice, 16 times for 30 seconds with a 30-second interval between cycles.
Add 2.5 ml of 5 M NaCl+2.5 ml BSA (10% in Milli Q, pH 8)+3.25 ml Milli Q
Total volume: 12.5 ml (for 80 reactions )
If an inhibitor is going to be used, it should be incubated with the 50 μl HL (of a 125 mU/ml solution) for 70 minutes at 25° C. A 5 μl aliquot from the incubated 50 μl is added to 150 μl assay mix+45 μl Milli Q™ water and mixed.
Incubate for exactly 30 minutes at 25° C.
Stop the reaction with Methanol:chloroform:heptane 10:9:7: 3.25 ml/vial, mix; then add 1.05 ml buffer (100 mM boric acid, 100 mM potassium carbonate pH 10.5), mix for 10 seconds per vial.
Centrifuge for 20 min/2000 rpm
Take 1 ml of the upper phase+10 ml scintillation fluid and mix by shaking by hand.
Scintillation count for 5 minutes per vial.

Lipoprotein lipase (LPL) = target: T2, Lipoprotein lipase (LPL) (Bos taurus, UniProt P11151); assay: Lipoprotein lipase (LPL) inhibition assay, 3H-triolein/intralipid substrate; type: biochemical; conditions: read-out: LPL inhibition (% inh. at 50 μM)
T2 construct: Dr. Gunilla Olivecrona, Umea University (gift)
T2 sequence (P11151 29-478): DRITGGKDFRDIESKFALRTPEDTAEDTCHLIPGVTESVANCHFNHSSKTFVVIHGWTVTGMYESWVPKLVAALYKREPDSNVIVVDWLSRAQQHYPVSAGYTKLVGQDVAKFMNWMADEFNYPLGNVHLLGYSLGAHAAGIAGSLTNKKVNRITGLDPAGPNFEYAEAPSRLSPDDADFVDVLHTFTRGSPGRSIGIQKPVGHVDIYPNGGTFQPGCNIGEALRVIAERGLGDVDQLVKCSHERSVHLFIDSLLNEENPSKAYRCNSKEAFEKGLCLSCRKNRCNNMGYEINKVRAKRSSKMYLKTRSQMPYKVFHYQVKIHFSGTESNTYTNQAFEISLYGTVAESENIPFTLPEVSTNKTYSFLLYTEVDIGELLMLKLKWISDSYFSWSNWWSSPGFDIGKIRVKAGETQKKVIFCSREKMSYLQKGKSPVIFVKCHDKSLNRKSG
From the text: Lipoprotein Lipase (LPL) [Classified as EC 3.1.1.34 in accordance with the Recommendations of the Nomenclature Committee of the International Union of Biochemistry and Molecular Biology (available on the World Wide Web at the following address: http://www.chem.qmw.ac.uk/iubmb/enzyme/)]
Materials. The lipoprotein lipase employed was obtained from Dr. Gunilla Olivecrona of Umea University, Sweden. ^3H-triolein (TO) from Amersham, Buckinghamshire, U.K., cat No. TRA191; 5-20 Ci/mmol dissolved in toluene. Intralipid is from Kabi-Fresenius). Apo CII was obtained from PMSF-treated plasma from overnight fasted rats. All other reagents are of commercial grade and obtained from various commercial sources.
Methods. The preparation of the substrate is as follows:
25 μl of ^3H-Triolein evaporated under a gentle stream of N2 in a 27° C. room in 4 ml chromacol glass followed by the addition of 1 ml 10% intralipid. This is mixed and sonicated on ice for 5 minutes (50% pulse mode). This can be kept for 1 week at 4° C.
100 μl assay medium (0.3M Tris-Cl, 0.2M NaCl, 0.2 mg heparin/ml and 120 mg BSA/ml (fraction V, Sigma no. 3401, pH 8.5))
All mixed in a 13×100 mm glass tube and incubated for at least 5 minutes.
2. Add 5 μl LPL (of a solution containing 500 mU/mg)
Mix and incubate for 30 minutes at 25° C.
3. The reaction is stopped with 3.25 ml of a solution containing Methanol:chloroform:heptan 10:9:7. Add 1.05 ml buffer (100 mM Boric acid, 100 mM potassium carbonate pH 10.5) and mix 10 seconds per vial.
5. Take 1 ml of the upper phase+10 ml scintillation fluid and mix
6. Scintillation count for 5 minutes per vial.

Q: With `CC(C)(C)OC(=O)Nc1ccc(OC(=O)NN2CCc3ccccc3C2)cc1` [Example 17, (3,4-Dihydro-1H-isoquinolin-2-yl)-carbamic Acid 4-tert-butoxycarbonylamino-phenyl Ester] as the molecule, how does the inhibition at 50 µM (Hepatic lipase (HL)) read?
A: 3%

Q: What about the inhibition at 50 µM (Lipoprotein lipase (LPL)) of the same molecule?
A: 0%

Q: Which results are given for `O=C(NN1CCc2ccccc2C1)Oc1ccc(Cl)cc1` [Example 6, (3,4-Dihydro-1H-isoquinolin-2-yl)-carbamic acid 4-chloro-phenyl Ester]?
A: inhibition at 50 µM (Hepatic lipase (HL)): 6%; inhibition at 50 µM (Lipoprotein lipase (LPL)): 0%

Q: Which inhibition at 50 µM (Hepatic lipase (HL)) does the source give for `CC1Cc2ccccc2CN1NC(=O)Oc1ccc(Cl)cc1` (stereo not drawn) [Example 23, (3-Methyl-3,4-dihydro-1H-isoquinolin-2-yl)-carbamic Acid 4-chloro-phenyl Ester] here?
A: 4%

Q: And the inhibition at 50 µM (Lipoprotein lipase (LPL))?
A: 4%
